Converted amounts (≈) assume the structure as drawn. The source made the active and inactive calls. The calls are words filed in the database; no cut-off is given here.
How the values were obtained:
Cryptococcus neoformans = experiment: Antifungal activity against Cryptococcus neoformans ATCC 3315 after 72 to 96 hr by two-fold serial dilution method; format: functional
Aspergillus flavus [1] = experiment: Antifungal activity against Aspergillus flavus ATCC 470 after 72 to 96 hr by two-fold serial dilution method; format: functional
Bacillus subtilis [2] = experiment: Antibacterial activity against Bacillus subtilis ATCC 461 after 24 hr by two-fold serial dilution method; format: functional; settings: ATCC 461, 24 h
Escherichia coli = experiment: Antibacterial activity against Escherichia coli ATCC 25840 after 24 hr by two-fold serial dilution method; format: functional; settings: ATCC 25840, 24 h
Aspergillus niger [3] = experiment: Antifungal activity against Aspergillus niger ATCC 591 after 72 to 96 hr by two-fold serial dilution method; format: functional
Staphylococcus aureus [4] = experiment: Antibacterial activity against Staphylococcus aureus ATCC 25833 after 24 hr by two-fold serial dilution method; format: functional; settings: ATCC 25833, 24 h
[5] = system: Mycobacterium tuberculosis; experiment: Antituberculosis activity against Mycobacterium tuberculosis H37Rv ATCC 27294 after 21 days by BACTEC based radiometric respiratory technique; format: functional; settings: H37Rv ATCC 27294, 504 h
Salmonella typhi [6] = experiment: Antibacterial activity against Salmonella enterica subsp. enterica serovar Typhi ATCC 24930 after 24 hr by two-fold serial dilution method; format: functional; settings: ATCC 24930, 24 h
Klebsiella pneumoniae [7] = experiment: Antibacterial activity against Klebsiella pneumoniae ATCC 15499 after 24 hr by two-fold serial dilution method; format: functional; settings: ATCC 15499, 24 h
Rhizopus = experiment: Antifungal activity against Rhizopus sp. ATCC 2920 after 72 to 96 hr by two-fold serial dilution method; format: functional
Candida albicans [8] = experiment: Antifungal activity against Candida albicans ATCC 3130 after 72 to 96 hr by two-fold serial dilution method; format: functional
Bacillus subtilis [9] = experiment: Antibacterial activity against Bacillus subtilis ATCC 461 at 200 ug/ml after 24 hr by two-fold serial dilution method; format: functional, organism-based
Aspergillus flavus [10] = experiment: Antifungal activity against Aspergillus flavus ATCC 470 at 200 ug/ml after 72 to 96 hr by two-fold serial dilution method; format: functional, organism-based
[11] = system: Mycobacterium tuberculosis; experiment: Ratio of rifampicin MIC to compound MIC for Mycobacterium tuberculosis H37Rv ATCC 27294; format: functional
[12] = system: Mycobacterium tuberculosis; experiment: Ratio of isoniazid MIC to compound MIC for Mycobacterium tuberculosis H37Rv ATCC 27294; format: functional
Candida albicans [13] = experiment: Antifungal activity against Candida albicans ATCC 3130 at 200 ug/ml after 72 to 96 hr by two-fold serial dilution method; format: functional, organism-based
Staphylococcus aureus [14] = experiment: Antibacterial activity against Staphylococcus aureus ATCC 25833 at 200 ug/ml after 24 hr by two-fold serial dilution method; format: functional, organism-based
Klebsiella pneumoniae [15] = experiment: Antibacterial activity against Klebsiella pneumoniae ATCC 15499 at 200 ug/ml after 24 hr by two-fold serial dilution method; format: functional, organism-based
Aspergillus niger [16] = experiment: Antifungal activity against Aspergillus niger ATCC 591 at 200 ug/ml after 72 to 96 hr by two-fold serial dilution method; format: functional, organism-based
Salmonella typhi [17] = experiment: Antibacterial activity against Salmonella enterica subsp. enterica serovar Typhi ATCC 24930 at 200 ug/ml after 24 hr by two-fold serial dilution method; format: functional, organism-based

Row | Structure (SMILES) | MIC (Cryptococcus neoformans) | MIC (Aspergillus flavus [1]) | MIC (Bacillus subtilis [2]) | MIC (Escherichia coli) | MIC (Aspergillus niger [3]) | MIC (Staphylococcus aureus [4]) | MIC [5] | MIC (Salmonella typhi [6]) | MIC (Klebsiella pneumoniae [7]) | MIC (Rhizopus) | MIC (Candida albicans [8]) | Ratio [11] | Ratio [12] | further results
1 | CCOC(=O)N1CCN(CC(=O)N2C(c3ccc(F)cc3)CC(=O)C(C)C2c2ccc(F)cc2)CC1 (centres undefined) | 25 µg/mL (≈ 50 µM) | 25 µg/mL (≈ 50 µM) | 25 µg/mL (≈ 50 µM) | 100 µg/mL (≈ 200 µM) | 100 µg/mL (≈ 200 µM) | 50 µg/mL (≈ 100 µM) | > 256 µg/mL | 25 µg/mL (≈ 50 µM) | 12.5 µg/mL (≈ 25 µM) | 100 µg/mL (≈ 200 µM) | 25 µg/mL (≈ 50 µM) |  |  | 
2 | CC1(C)S[C@@H]2[C@H](NC(=O)Cc3ccccc3)C(=O)N2[C@H]1C(=O)O [PENICILLIN G] |  |  | 12.5 µg/mL (≈ 37.4 µM) | 12.5 µg/mL (≈ 37.4 µM) |  | 50 µg/mL (≈ 150 µM) |  | 50 µg/mL (≈ 150 µM) | 25 µg/mL (≈ 74.8 µM) |  |  |  |  | 
3 | CCOC(=O)N1CCN(CC(=O)N2C(c3ccccc3)C(C)C(=O)C(C)C2c2ccccc2)CC1 (centres undefined) | 25 µg/mL (≈ 52.3 µM) | 100 µg/mL (≈ 209 µM) |  | 25 µg/mL (≈ 52.3 µM) | 100 µg/mL (≈ 209 µM) | 200 µg/mL (≈ 419 µM) |  |  | 50 µg/mL (≈ 105 µM) | 100 µg/mL (≈ 209 µM) | 100 µg/mL (≈ 209 µM) |  |  | Activity (Bacillus subtilis [9]): inactive
4 | CCOC(=O)N1CCN(CC(=O)N2C(c3ccc(Cl)cc3)C(C)C(=O)C(C)C2c2ccc(Cl)cc2)CC1 (centres undefined) | 200 µg/mL (≈ 366 µM) |  | 50 µg/mL (≈ 91.5 µM) | 100 µg/mL (≈ 183 µM) | 50 µg/mL (≈ 91.5 µM) | 50 µg/mL (≈ 91.5 µM) | 16 µg/mL (≈ 29.3 µM) | 25 µg/mL (≈ 45.7 µM) | 50 µg/mL (≈ 91.5 µM) | 25 µg/mL (≈ 45.7 µM) | 100 µg/mL (≈ 183 µM) | 200 | 1.56 | Activity (Aspergillus flavus [10]): inactive
5 | NNC(=O)c1ccncc1 [ISONIAZID] |  |  |  |  |  |  | 0.25 µg/mL (≈ 1.82 µM) |  |  |  |  |  |  | 
6 | CO[C@H]1/C=C/O[C@@]2(C)Oc3c(C)c(O)c4c(O)c(c(/C=N/N5CCN(C)CC5)c(O)c4c3C2=O)NC(=O)/C(C)=C\C=C\[C@H](C)[C@H](O)[C@@H](C)[C@@H](O)[C@@H](C)[C@H](OC(C)=O)[C@@H]1C [RIFAMPIN] |  |  |  |  |  |  | 32 µg/mL (≈ 38.9 µM) |  |  |  |  |  |  | 
7 | C[C@@H]1[C@H](O)[C@@H](C)/C=C/C=C/C=C/C=C/C=C/C=C/C=C/[C@H](O[C@@H]2O[C@H](C)[C@@H](O)[C@H](N)[C@@H]2O)C[C@@H]2O[C@](O)(C[C@@H](O)C[C@@H](O)[C@H](O)CC[C@@H](O)C[C@@H](O)CC(=O)O[C@H]1C)C[C@H](O)[C@H]2C(=O)O [AMPHOTERICIN B] | 25 µg/mL (≈ 27.1 µM) | 50 µg/mL (≈ 54.1 µM) |  |  | 50 µg/mL (≈ 54.1 µM) |  |  |  |  | 25 µg/mL (≈ 27.1 µM) | 25 µg/mL (≈ 27.1 µM) |  |  | 
8 | CCOC(=O)N1CCN(CC(=O)N2C(c3ccc(OC)cc3)C(C)C(=O)C(C)C2c2ccc(OC)cc2)CC1 (centres undefined) | 200 µg/mL (≈ 372 µM) | 100 µg/mL (≈ 186 µM) | 50 µg/mL (≈ 93 µM) | 200 µg/mL (≈ 372 µM) | 100 µg/mL (≈ 186 µM) | 100 µg/mL (≈ 186 µM) | 16 µg/mL (≈ 29.8 µM) | 100 µg/mL (≈ 186 µM) | 100 µg/mL (≈ 186 µM) | 50 µg/mL (≈ 93 µM) |  | 200 | 1.56 | 
9 | CCOC(=O)N1CCN(CC(=O)N2C(c3ccccc3)CC(=O)C(C)C2c2ccccc2)CC1 (centres undefined) | 50 µg/mL (≈ 108 µM) | 200 µg/mL (≈ 431 µM) | 50 µg/mL (≈ 108 µM) | 50 µg/mL (≈ 108 µM) | 100 µg/mL (≈ 216 µM) | 100 µg/mL (≈ 216 µM) | > 256 µg/mL | 100 µg/mL (≈ 216 µM) | 200 µg/mL (≈ 431 µM) | 200 µg/mL (≈ 431 µM) |  |  |  | Activity (Candida albicans [13]): inactive
10 | CCOC(=O)N1CCN(CC(=O)N2C(c3ccc(C)cc3)CC(=O)C(C)C2c2ccc(C)cc2)CC1 (centres undefined) | 50 µg/mL (≈ 102 µM) | 200 µg/mL (≈ 407 µM) | 100 µg/mL (≈ 203 µM) | 50 µg/mL (≈ 102 µM) | 50 µg/mL (≈ 102 µM) |  | > 256 µg/mL | 200 µg/mL (≈ 407 µM) | 100 µg/mL (≈ 203 µM) | 200 µg/mL (≈ 407 µM) | 200 µg/mL (≈ 407 µM) |  |  | Activity (Staphylococcus aureus [14]): inactive
11 | CCOC(=O)N1CCN(CC(=O)N2C(c3ccccc3)CC(=O)C(CC)C2c2ccccc2)CC1 (centres undefined) | 25 µg/mL (≈ 52.3 µM) | 12.5 µg/mL (≈ 26.2 µM) | 50 µg/mL (≈ 105 µM) | 25 µg/mL (≈ 52.3 µM) |  | 200 µg/mL (≈ 419 µM) | 16 µg/mL (≈ 33.5 µM) | 100 µg/mL (≈ 209 µM) |  | 100 µg/mL (≈ 209 µM) | 12.5 µg/mL (≈ 26.2 µM) | 200 | 1.56 | Activity (Klebsiella pneumoniae [15]): inactive; Activity (Aspergillus niger [16]): inactive
12 | CCOC(=O)N1CCN(CC(=O)N2C(c3cccc(F)c3)C(C)C(=O)C(C)C2c2cccc(F)c2)CC1 (centres undefined) | 25 µg/mL (≈ 48.7 µM) |  | 12.5 µg/mL (≈ 24.3 µM) | 50 µg/mL (≈ 97.4 µM) | 6.25 µg/mL (≈ 12.2 µM) | 6.25 µg/mL (≈ 12.2 µM) | 16 µg/mL (≈ 31.2 µM) |  | 100 µg/mL (≈ 195 µM) | 12.5 µg/mL (≈ 24.3 µM) | 100 µg/mL (≈ 195 µM) | 200 | 1.56 | Activity (Aspergillus flavus [1]): inactive; Activity (Salmonella typhi [17]): inactive
13 | CCOC(=O)N1CCN(CC(=O)N2C(c3cccc(F)c3)CC(=O)C(C)C2c2cccc(F)c2)CC1 (centres undefined) | 12.5 µg/mL (≈ 25 µM) | 100 µg/mL (≈ 200 µM) | 100 µg/mL (≈ 200 µM) | 6.25 µg/mL (≈ 12.5 µM) | 25 µg/mL (≈ 50 µM) | 50 µg/mL (≈ 100 µM) | > 256 µg/mL |  | 6.25 µg/mL (≈ 12.5 µM) | 50 µg/mL (≈ 100 µM) | 6.25 µg/mL (≈ 12.5 µM) |  |  | Activity (Salmonella typhi [17]): inactive
14 | CCOC(=O)N1CCN(CC(=O)N2C(c3ccc(F)cc3)CC(=O)C(CC)C2c2ccc(F)cc2)CC1 (centres undefined) | 100 µg/mL (≈ 195 µM) | 100 µg/mL (≈ 195 µM) | 100 µg/mL (≈ 195 µM) | 12.5 µg/mL (≈ 24.3 µM) | 12.5 µg/mL (≈ 24.3 µM) | 100 µg/mL (≈ 195 µM) | 64 µg/mL (≈ 125 µM) | 50 µg/mL (≈ 97.4 µM) | 12.5 µg/mL (≈ 24.3 µM) | 12.5 µg/mL (≈ 24.3 µM) | 50 µg/mL (≈ 97.4 µM) | 50 | 0.39 | 
